Measurements: the NIST ThermoML archive (doi:10.1016/j.jct.2007.03.011)
Values joined by “and” are separate entries in the source; they are usually repeats but may differ in a detail not shown here. Equal values may be shown once.

Settings: Liquid, Transpiration method

N#CCCO [3-hydroxypropanenitrile]
Settings	vapor or sublimation pressure
306.3 K	0.01564 kPa
311.3 K	0.02299 kPa
314.3 K	0.02755 kPa
317.3 K	0.03639 kPa
318.6 K	0.03759 kPa
321.4 K	0.04504 kPa
321.7 K	0.04955 kPa
323.3 K	0.05382 kPa
325.4 K	0.06297 kPa
326.3 K	0.06361 kPa
328.6 K	0.07507 kPa
331.4 K	0.08563 kPa and 0.09147 kPa
333.4 K	0.1054 kPa
336.3 K	0.1286 kPa
336.4 K	0.1232 kPa
338.5 K	0.1442 kPa
340.4 K	0.1598 kPa
341.5 K	0.1816 kPa
343.4 K	0.2025 kPa
346.6 K	0.2592 kPa
351.7 K	0.3404 kPa
356.8 K	0.4425 kPa
361.8 K	0.5765 kPa
